Data taken from ChEMBL document CHEMBL1201862, “PubChem BioAssay data set” (2004).
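Compound exposure: 48 hours, 5 concentrations, 96-well plates. Here, GI50 denotes the concentration required for 50% inhibition of growth.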 Calls of active or inactive are those of the source. Cut-off read from the data, not from the text of the source: active = GI50 up to about 1.1 µM and inactive = higher.

Columns and labels:
Assay in all cases: inhibition of tumour cell growth, NCI panel, 48 h
786-0 = test system: 786-0
A498 = test system: A498
CAKI-1 = test system: CAKI-1
COLO 205 = test system: COLO 205
HCT-15 = test system: HCT-15
HOP-62 = test system: HOP-62
K562 = test system: K562
MCF7 = test system: MCF7
MOLT-4 = test system: MOLT-4
NCI-H226 = test system: NCI-H226
NCI-H460 = test system: NCI-H460
OVCAR-3 = test system: OVCAR-3
OVCAR-8 = test system: OVCAR-8
PC-3 = test system: PC-3
RPMI-8226 = test system: RPMI-8226
SK-MEL-28 = test system: SK-MEL-28
SK-MEL-2 = test system: SK-MEL-2
T47D = test system: T47D
TK-10 = test system: TK-10
UACC-257 = test system: UACC-257

Row | SMILES | GI50 (786-0) | GI50 (A498) | GI50 (CAKI-1) | GI50 (COLO 205) | GI50 (HCT-15) | GI50 (HOP-62) | GI50 (K562) | GI50 (MCF7) | GI50 (MOLT-4) | GI50 (NCI-H226) | GI50 (NCI-H460) | GI50 (OVCAR-3) | GI50 (OVCAR-8) | GI50 (PC-3) | GI50 (RPMI-8226) | GI50 (SK-MEL-28) | GI50 (SK-MEL-2) | GI50 (T47D) | GI50 (TK-10) | GI50 (UACC-257)
1 | CN(C)C1=Nc2ccccc2C(=S)N2CSCC12 (stereo not given) | 25.9 µM (inactive) | > 100 µM (inactive) | 20.9 µM (inactive) | 22.3 µM (inactive) | 34 µM | > 100 µM (inactive) | 12.8 µM (inactive) | 47.3 µM (inactive) | 22.4 µM (inactive) | > 100 µM (inactive) | 37.8 µM (inactive) | 32.7 µM (inactive) | > 100 µM (inactive) | > 100 µM (inactive) | 51.4 µM (inactive) | 81.1 µM (inactive) | > 100 µM (inactive) | 89.5 µM (inactive) | > 100 µM (inactive) | > 100 µM (inactive)
2 | O=C(CCCC1Cc2ccccc2C1=O)c1ccccc1 (stereo not given) | > 100 µM (inactive) | 52.5 µM (inactive) | > 100 µM (inactive) | 93.8 µM (inactive) | 74.8 µM | > 100 µM (inactive) | 39.8 µM (inactive) | 31.2 µM (inactive) | 33.3 µM (inactive) | 70.1 µM (inactive) | 89.9 µM (inactive) | 47.4 µM (inactive) | 79.6 µM (inactive) | 35.1 µM (inactive) | 46.9 µM (inactive) | > 100 µM (inactive) | > 100 µM (inactive) | 33.3 µM (inactive) | 84.5 µM (inactive) | 46.2 µM (inactive)
3 | CCOC(=O)C(C(N)=O)C1=Nc2cc([N+](=O)[O-])ccc2N/C1=C\C(=O)c1ccc(C)cc1 (stereo not given) | 13.1 µM (inactive) | 27.8 µM (inactive) | 46.6 µM (inactive) | 27.2 µM (inactive) | 28.8 µM | 16.8 µM (inactive) | 2.46 µM (inactive) | 22.4 µM (inactive) | 0.522 µM (active) | 27.4 µM (inactive) | 22.2 µM (inactive) | 15.8 µM (inactive) | 19 µM (inactive) | 20 µM (inactive) | 18.1 µM (inactive) | 29.3 µM (inactive) | 20.9 µM (inactive) | 60.1 µM (inactive) | 14.8 µM (inactive) | 39.5 µM (inactive)
4 | CN(C)c1ccc2cc3ccc(N(C)C)cc3nc2c1 [ACRIDINE ORANGE] | 0.638 µM (active) | 4.08 µM (inactive) | 1.79 µM (inactive) | 0.975 µM (active) | 0.467 µM | 2.02 µM (inactive) | 0.397 µM (active) | 0.714 µM (active) | 0.134 µM (active) | 5.09 µM (inactive) | 0.393 µM (active) | 2.95 µM (inactive) | 1.56 µM (inactive) | 2.04 µM (inactive) | 0.527 µM (active) | 3.37 µM (inactive) | 6.18 µM (inactive) | 12.1 µM (inactive) | 2.86 µM (inactive) | 3.98 µM (inactive)
